US20180051284A1, “INHIBITORS OF MIR-17-92 CLUSTER FOR ANTI-TUMOR ACTIVITY IN MULTIPLE MYELOMA AND OTHER MALIGNANCIES” (priority 2014, published 2018)
l = locked nucleic acid (LNA); d = 2'-deoxy (DNA)

Experiments:
AMO1/abzb xenografts = assay: In vivo tumor growth of Bortezomib-refractory AMO1/abzb xenografts (IVIS); set-up: species or system mice; details: I.P. 2 mg/kg at day 1-4-8-15-22; Bortezomib-refractory model
Source text: Male CB-17 severe combined immunodeficient (SCID) mice (6- to 8-weeks old; Harlan Laboratories, Inc., Indianapolis) were housed and monitored in our Animal Research Facility. All experimental procedures and protocols had been approved by the Institutional Ethical Committee (Magna Graecia University) and conducted according to protocols approved by the National Directorate of Veterinary Services (Italy). In accordance with institutional guidelines, mice were sacrificed when tumors reached 2 cm in diameter or in the event of paralysis or major compromise, to prevent unnecessary suffering. Animal experimental procedures have been performed as in previous reports (Di Martino et al, CCR 2012; Di Martino el al. Oncotarget 2013, Di Martino et al PlosOne 2014). […] Mice were also inoculated with 5×10^6 luciferase gene-marked U266, AMO-1, AMO-1/abzb, treatments were performed intraperitoneally (i.p.), and tumor volume were measured by IVIS Lumina II.
In vivo anti-MM activity of LNA gapmer_06 was next evaluated in NOD/SCID mice bearing subcutaneous AMO1 xenografts. […] Tumors volume were measured using IVIS LUMINA II Imaging We next evaluate the in vivo activity in Bortezomib-refractory model of human MM. […] Tumors volume were measured using IVIS LUMINA II Imaging System.

[1] = system: CD138+ plasma cells derived from MGUS patients; assay: Cell viability (7-AAD) of MGUS plasma cells after gymnotic exposure; assay type: cell-based, Human; details: 6 days gymnotic exposure, 5 μM
Protocol: (§1) Following informed consent approved by our University Hospital Ethical Commitee, CD138+cells were isolated from the BM aspirates of both Monoclonal gammopathy of undetermined significance (MGUS) and myeloma patients by Ficoll-Hypaque density gradient sedimentation followed by antibody-mediated positive selection using anti-CD138 magnetic activated cell separation microbeads (Miltenyi Biotech, Gladbach, Germany). Purity of immunoselected cells were assessed by flow-cytometric analysis using a phycoerythrin-conjugated CD138 monoclonal antibody by standard procedures.
(§2) 7-aminoactinomycin was used to evaluate cell viability. The staining was performed according to manufacturer's instructions.

[2] = system: CD138+ primary MM cells from bone marrow aspirates of myeloma patients; assay: Cell viability (7-AAD) of primary myeloma cells after gymnotic exposure; assay type: cell-based, Human; details: 6 days gymnotic exposure, 2.5, 5 or 10 μM; cultured with HS-5 stromal cells
Protocol: as §1, §2
CD138+malignant plasma cells derived from bone marrow aspirates of 11 myeloma patients were cultured in presence of human stromal HS-5 cells.

NCI-H929 MM xenografts = assay: In vivo anti-MM activity in NCI-H929 xenografted SCID/NOD mice
Source text: Male CB-17 severe combined immunodeficient (SCID) mice (6- to 8-weeks old; Harlan Laboratories, Inc., Indianapolis) were housed and monitored in our Animal Research Facility. All experimental procedures and protocols had been approved by the Institutional Ethical Committee (Magna Graecia University) and conducted according to protocols approved by the National Directorate of Veterinary Services (Italy). In accordance with institutional guidelines, mice were sacrificed when tumors reached 2 cm in diameter or in the event of paralysis or major compromise, to prevent unnecessary suffering. Animal experimental procedures have been performed as in previous reports (Di Martino et al, CCR 2012; Di Martino el al. Oncotarget 2013, Di Martino et al PlosOne 2014). Briefly, mice were subcutaneously inoculated with 5×10^6 NCI-H929 cells and treatments started when palpable tumors became detectable, approximately 3 weeks following injection of MM cells. Treatments were performed intraperitoneally with different schedules in order to reach the Maximun Tolerated Dose (MTD) and a dose-response curve. Mice were also inoculated with 5×10^6 luciferase gene-marked U266, AMO-1, AMO-1/abzb, treatments were performed intraperitoneally (i.p.), and tumor volume were measured by IVIS Lumina II.
The tumor sizes were assessed by Caliper measurement. […]

Substance: gapmer_06: LNA/DNA gapmer, SEQ ID 4 (14 mer): +T*+A*+C*T*T*G*C*T*T*G*G*+C*+T*+T; + LNA, * phosphorothioate (antisense TACTTGCTTGGCTT; sugars from the 5' end l3 d8 l3, all phosphorothioate, methylation of C not given here)
- tumor growth (IVIS tumor volume) (AMO1/abzb xenografts): significant tumor-growth inhibition
- cell viability (7-AAD) [1]: unaffected
- dead myeloma cells (7-AAD staining) [2]: significant increase of dead myeloma cells
- survival (Kaplan-Meier) (NCI-H929 MM xenografts; intraperitoneal treatment, as compared to saline): significant prolongation of survival
- tumor growth (caliper tumor volume) (NCI-H929 MM xenografts; intraperitoneally, 75-50-25 μg once weekly or 25-12.5 μg twice weekly, vs saline): significant (P<0.05) inhibition of tumor growth in a dose dependent-manner
